Assay results from patent US5543276A, “Color photographic element containing new epoxy scavengers for residual magenta coupler” (Eastman Kodak Company, priority 1994, dated 1996).

What was measured:
[1] = Residual magenta coupler M-20 in unexposed strips, raw stock and RA-4 processed; conditions: coated M-20 32.8 mg/ft^2; for M-20 remaining, Processed after 2wk / M-20 remaining, Processed after 4wk: unexposed strips, standard RA-4 developer; for M-20 remaining, Processed after 2wk / M-20 remaining, Raw Stock after 2wk RT: 2 weeks room temperature; for M-20 remaining, Processed after 4wk / M-20 remaining, Raw Stock after 4wk: 4 weeks room temperature; for M-20 remaining, Raw Stock after 2wk RT / M-20 remaining, Raw Stock after 4wk: unprocessed strips
Procedure: A dispersion of the magenta coupler M-20 and scavenger coupler S-1 were prepared in the following manner:
The oil phase was prepared by combining 1.875 grams of S-1 with 0.852 grams of myrisitc acid and 30 grams of ethyl acetate. The solution was stirred on a hot plate for about 5 minutes.
The aqueous phase was prepared by combining 3.0 grams of a 10% solution of Alkanol XC with 17.6 grams of a 11.36% solution of Type IV gelatin in water. 26.7 grams of distilled water was then added and the solution was stirred on a hot plate for about five minutes.
The aqueous phase was combined with the oil phase and the mixture was stirred. The mixture was then passed three times through a colloid mill to obtain the dispersion. The ethyl acetate was removed by evaporation under reduced pressure. [drawing 42] The dispersions were then coated in the format shown below (the numbers indicate the amount of each component in mg/ft^2).
The coating format also contains a UV protection layer and an overcoat (not shown). Unexposed strips were process in standard RA-4 developer and then stored at room temperature. The strips were analyzed for residual coupler as a function of time. A set of unprocessed strips were stored at room temperature for the same length of time to check for reaction between coupler and S-1 in raw stock. A second set of unexposed strips were processed in standard RA-4 developer and then subjected to two weeks of 50 klux high intensity sunshine radiation after storage at room temperature for two weeks. The change in Status A blue density was measured. […]

[2] = Change in Status A blue density (photochemical yellowing) of processed unexposed strips under high intensity sunshine radiation; conditions: RA-4 processed, 2 weeks room temperature, then two weeks 50 klux high intensity sunshine
Procedure: The coating format also contains a UV protection layer and an overcoat (not shown). Unexposed strips were process in standard RA-4 developer and then stored at room temperature. The strips were analyzed for residual coupler as a function of time. A set of unprocessed strips were stored at room temperature for the same length of time to check for reaction between coupler and S-1 in raw stock. A second set of unexposed strips were processed in standard RA-4 developer and then subjected to two weeks of 50 klux high intensity sunshine radiation after storage at room temperature for two weeks. The change in Status A blue density was measured.
This coating also contained a UV protection layer and overcoat (not shown). Strips based on the coating were subjected to the same set of tests as in Example 4.

[3] = epoxy compound coated in separate layers adjacent to imaging layer; copending application Ser. No. 08/000,431; cited from earlier work

Row | SMILES | M-20 remaining, Processed after 2wk [1] | M-20 remaining, Processed after 4wk [1] | M-20 remaining, Raw Stock after 2wk RT [1] | M-20 remaining, Raw Stock after 4wk [1] | Delta Blue Density [2] | loss of coupler prior to processing [3]
1 | O=C(OCCCCCCCCCC1CO1)c1ccccc1C(=O)OCCCCCCCCCC1CO1 (centres unmarked) [S-1] | 29.9 mg/ft.2 | 29.3 mg/ft.2 | 30.2 mg/ft.2 | 28.8 mg/ft.2 | 0.13 | negligible loss of coupler prior to processing
2 | O=C(CCCCCCCCC1CO1)Oc1ccc(NS(=O)(=O)c2ccc(F)cc2F)cc1 (centres unmarked) [SI-20] | 14.9 mg/ft.2 | 13.9 mg/ft.2 | 28.6 mg/ft.2 | 28.4 mg/ft.2 | 0.05 | 
